Assay results as given in patent US20250052744A1, “Dyes and Uses Thereof” (The University of Liverpool, priority 2021, published 2025).

Assays:
Experiment in all cases: Qualitative dye staining on agarose pads (EVOS M7000)
Type in all cases: cell-based
Set-up in all cases: key to Relative fluorescent intensity: Very high: If the cells looked twice as big in the fluorescent channel, it was marked as having “very high” relative fluorescent intensity; High: if the cells looked bigger in the fluorescent channel, it was marked as having “high” relative fluorescent intensity; Medium: If the cells looked almost the same size in the fluorescent channel and the bright field, it was marked as having “medium” relative fluorescent intensity; Low: If the cells looked smaller in the fluorescent channel as compared to the brightfield but still the whole cell was visible, it was marked as having “low” relative fluorescent intensity; Negligible: If only a few traces of a cell was visible in the fluorescent channel, it was marked as having “negligible” relative fluorescent intensity
Details in all cases: DiSC3(5) 3 μM, SYBR Green I 10×, SYTO 13 3 μM, FM4-64 15 μM
Cory. Urealyticum = tested on: Cory. Urealyticum
Method: (§1) An overnight culture was prepared by inoculating a bacterial colony in approximately 5 ml of Urine and incubating the culture in an orbital shaker at 37° C.
(§2) The following media and materials were utilised: Cation-adjusted Mueller Hinton broth (MHB); Phosphate Buffered Saline (PBS); Membrane staining dye—FM4-64 (1.5 mM); Live cell staining dye—DiSC3(5) (1 mM); DNA staining dye—SYBR Green (1000×); DNA staining dye—SYTO 13 (0.5 mM); Ultrapure Agarose; Parafilm; Glass slides and coverslips; Scalpel; and EVOS M7000 fluorescent microscope.
(§3) A pre-cut parafilm or a coverslip was used as a guide and 22 mm×22 mm squares cut from parafilm. A square was cut out of the centre of the parafilm (approximately 10 mm×10 mm). The centre of the cut-out was discarded. Two parafilm gaskets were placed onto a cleaned glass slide. The glass slide was then placed on a dry bath set to 56° C. so that the parafilm adhered to the glass slide. The glass slide was then kept on the dry bath. Using a microwave, ultrapure agarose was dissolved in PBS at a concentration of 1.2%. The agarose solution was kept on a dry bath set at 56° C. 60 μl of the agarose solution was pipetted in the centre of the parafilm gaskets. A coverslip was then placed over the gaskets without applying pressure on the coverslip. The slide was then placed on a cool surface and left to solidify for 1-2 minutes. The coverslips were then gently lifted off the agarose pads.
(§4) In a first Eppendorf, 15 μl of FM4-64 and 6 μl of SYTO 13 was added and in a second Eppendorf 10 μl of SYBR Green and 3 μl of DiSC3(5) was added. Depending on the bacterial growth in urine, an appropriate concentration of the bacterial culture was placed in the two Eppendorfs (final bacterial concentration 10^6 CFU/ml). MHB was added so as to achieve a final volume of 1 ml. Final concentrations of the dyes in the sample was as follows: DiSC3(5): 3 μM; SYBR Green I: 10× (originally supplied as 10,000×); SYTO 13: 3 μM; and FM4-64: 15 μM
(§5) 4 μl of the contents of each Eppendorf were deposited on one agarose pad and the cells distributed across the agar surface by tilting the slide. The slide was left to dry for approximately 1 minute. A coverslip was then placed on top of the agarose pad. The slide was placed inside the microscope and incubated at 37° C. for 10 minutes. Using different light filters for each dye, an image of each pad at 40× magnification on an EVOS M7000 fluorescent microscope was captured. Eight images for each agarose pad was recorded (i.e. 8 each for brightfield and 2 fluorescent channels). For each agarose pad, 24 images were recorded. This corresponded to 48 images in total for each bacterial strain (2 agarose pads per strain). Table A below was used to take the images using the correct fluorescent channel and intensity (for imagining on any other instrument, the LED intensity will need to be normalised against the EVOS M7000).
(§6) To qualitatively calculate the relative fluorescent intensities, cell size was compared between brightfield and the fluorescent channel for a given fluorescent dye. If the cells are very fluorescent, they will appear bigger in the fluorescent channel as compared to the bright field. For our qualitative measurements, if the cells looked bigger in the fluorescent channel, it was marked as having “high” relative fluorescent intensity. If the cells looked twice as big in the fluorescent channel, it was marked as having “very high” relative fluorescent intensity. If the cells looked almost the same size in the fluorescent channel and the bright field, it was marked as having “medium” relative fluorescent intensity. If the cells looked smaller in the fluorescent channel as compared to the brightfield but still the whole cell was visible, it was marked as having “low” relative fluorescent intensity. If only a few traces of a cell was visible in the fluorescent channel, it was marked as having “negligible” relative fluorescent intensity.

Klebsiella oxytoca = tested on: Klebsiella oxytoca
Method: as §1, §2, §3, §4, §5, §6

Proteus mirabilis = tested on: Proteus mirabilis
Method: as §1, §2, §3, §4, §5, §6

[1] = Table 8 sample Cory. Urealyticum (1001)
[2] = Table 8 sample Cory. Urealyticum (1002)
[3] = Table 8 sample Klebsiella oxytoca (091)
[4] = Table 8 sample Klebsiella oxytoca (092)
[5] = Table 8 sample Klebsiella oxytoca (093)
[6] = Table 7 commercial strain Proteus mirabilis NCTC 10975
[7] = Table 7 commercial strain Proteus mirabilis NCTC 11938
[8] = Table 8 sample Proteus mirabilis (021)
[9] = Table 8 sample Proteus mirabilis (022)
[10] = Table 8 sample Proteus mirabilis (023)

Row | SMILES | Percentage of cells stained (Cory. Urealyticum; [1]) | Relative fluorescent intensity (Cory. Urealyticum; [1]) | Percentage of cells stained (Cory. Urealyticum; [2]) | Relative fluorescent intensity (Cory. Urealyticum; [2]) | Percentage of cells stained (Klebsiella oxytoca; [3]) | Relative fluorescent intensity (Klebsiella oxytoca; [3]) | Percentage of cells stained (Klebsiella oxytoca; [4]) | Relative fluorescent intensity (Klebsiella oxytoca; [4]) | Percentage of cells stained (Klebsiella oxytoca; [5]) | Relative fluorescent intensity (Klebsiella oxytoca; [5]) | Percentage of cells stained (Proteus mirabilis; [6]) | Relative fluorescent intensity (Proteus mirabilis; [6]) | Percentage of cells stained (Proteus mirabilis; [7]) | Relative fluorescent intensity (Proteus mirabilis; [7]) | Percentage of cells stained (Proteus mirabilis; [8]) | Relative fluorescent intensity (Proteus mirabilis; [8]) | Percentage of cells stained (Proteus mirabilis; [9]) | Relative fluorescent intensity (Proteus mirabilis; [9]) | Percentage of cells stained (Proteus mirabilis; [10]) | Relative fluorescent intensity (Proteus mirabilis; [10])
1 | CCCN1C(=CC=CC=Cc2sc3ccccc3[n+]2CCC)Sc2ccccc21.[I-] [DiSC3(5), 3,3′-Dipropylthiadicarbocyanine Iodide] | Few | Negligible | Few | Negligible | Almost all | Medium | Almost all | Low | Half | Low | Almost all | Medium | Almost all | Low | Almost all | Low | Almost all | Medium | Almost all | Medium
2 | CCN(CC)c1ccc(C=CC=CC=Cc2cc[n+](CCC[N+](CC)(CC)CC)cc2)cc1.[Br-].[Br-] [FM 4-64, N-(3-Triethylammoniumpropyl)-4-(6-(4-(Diethylamino) Phenyl) Hexatrienyl) Pyridinium Dibromide] | Few | Negligible | Few | Negligible | Few | Low | Almost all | Low | Half | Low | Few | Negligible | Few | Negligible | Few | Negligible | Few | Negligible | Few | Negligible
3 | CCCN(CCCN(C)C)c1cc(/C=C2/Sc3ccccc3N2C)c2ccccc2[n+]1-c1ccccc1 [SYBR Green I, N′,N′-dimethyl-N-[4-[(E)-(3-methyl-1,3-benzothiazol-2-ylidene)methyl]-1-phenylquinolin-1-ium-2-yl]-N-propylpropane-1,3-diamine] | Few | Negligible | Few | Negligible | Almost all | Low | Almost all | Low | Half | Low | Half | Low | Half | Low | Half | Low | Half | Low | Half | Low
